# Results taken from article PMC10999085, “Synthesis, anticancer evaluation, molecular docking and ADME study of novel pyrido[4ʹ,3ʹ:3,4]pyrazolo[1,5-a]pyrimidines as potential tropomyosin receptor kinase A (TrKA) inhibitors” (BMC Chemistry, 2024).
# How the values were obtained:
# MCF7 cell line = assay: MTT assay, MCF7 cell line; type: cell-based, human; conditions: 24 hr treatment, in % (unit assumed); for Cytotoxicity at 5 µg/l: MCF7, 5 µg/l; for Cytotoxicity at 10 µg/l: MCF7, 10 µg/l; for Cytotoxicity at 20 µg/l: MCF7, 20 µg/l
# Method in brief: (§1)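 Cells in RPMI-1640 with 10% FBS were seeded at 1.0x10^4 cells/well and cultured 48 h, then exposed to compound for 24 hr. Viability was measured by MTT reduction (4 hr), with formazan dissolved in DMSO and read at 570 nm, relative to untreated cells. Values are means of three independent triplicate experiments.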
# HepG2 cell line = assay: MTT assay, HepG2 cell line; type: cell-based, human; conditions: for Cytotoxicity at 5 µg/l: HepG2, 5 µg/l; for Cytotoxicity at 5 µg/l / Cytotoxicity at 10 µg/l / Cytotoxicity at 20 µg/l: MTT, 24 hr treatment, in % (unit assumed); for Cytotoxicity at 10 µg/l: HepG2, 10 µg/l; for Cytotoxicity at 20 µg/l: HepG2, 20 µg/l; for IC50: Homo sapiens, HepG2, MTT, read-out: IC50 (drug concentration that inhibited 50% of cell proliferation)
# Method in brief: as §1
# HCT-116 cell line = assay: MTT assay, HCT-116 cell line; type: cell-based, human; conditions: for Cytotoxicity at 5 µg/l: HCT116, 5 µg/l; for Cytotoxicity at 5 µg/l / Cytotoxicity at 10 µg/l / Cytotoxicity at 20 µg/l: MTT, 24 hr treatment, in % (unit assumed); for Cytotoxicity at 10 µg/l: HCT116, 10 µg/l; for Cytotoxicity at 20 µg/l: HCT116, 20 µg/l; for IC50: Homo sapiens, HCT-116, HCT116, MTT, read-out: IC50 (drug concentration that inhibited 50% of cell proliferation)
# Method in brief: as §1
# [1] = target: T1, Tropomyosin receptor kinase A (TrKA) (Homo sapiens, UniProt P04629); assay: Tropomyosin receptor kinase A (TrKA) inhibitory assay (Kinase-Glo MAX kit); type: biochemical; conditions: in vitro kinase assay, recombinant TrkA
# T1 construct: purchased
# T1 sequence (P04629 33-796): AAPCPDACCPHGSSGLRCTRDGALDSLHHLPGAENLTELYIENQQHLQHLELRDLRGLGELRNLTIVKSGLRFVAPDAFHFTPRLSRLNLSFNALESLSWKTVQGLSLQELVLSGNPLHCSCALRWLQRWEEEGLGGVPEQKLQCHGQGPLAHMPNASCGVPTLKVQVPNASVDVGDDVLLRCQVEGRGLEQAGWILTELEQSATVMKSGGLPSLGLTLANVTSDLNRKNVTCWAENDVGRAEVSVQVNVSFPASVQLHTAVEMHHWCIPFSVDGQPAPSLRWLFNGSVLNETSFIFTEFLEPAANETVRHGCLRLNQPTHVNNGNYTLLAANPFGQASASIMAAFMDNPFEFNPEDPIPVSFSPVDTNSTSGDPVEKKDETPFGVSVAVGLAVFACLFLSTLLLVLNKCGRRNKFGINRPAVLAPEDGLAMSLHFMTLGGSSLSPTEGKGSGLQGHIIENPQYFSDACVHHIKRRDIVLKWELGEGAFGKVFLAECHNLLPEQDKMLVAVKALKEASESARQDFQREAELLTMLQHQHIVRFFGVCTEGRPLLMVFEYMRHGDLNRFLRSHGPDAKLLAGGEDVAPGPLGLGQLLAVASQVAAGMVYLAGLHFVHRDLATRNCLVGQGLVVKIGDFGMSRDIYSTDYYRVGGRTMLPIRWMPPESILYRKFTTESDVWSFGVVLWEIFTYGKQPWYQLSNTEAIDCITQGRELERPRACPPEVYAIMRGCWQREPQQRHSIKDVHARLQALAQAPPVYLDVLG
# Excerpt: (§2) The TrkA assay Kit is designed to measure TrkA activity for screening and profiling applications using Kinase-Glo® MAX as a detection reagent. The TrkA Assay Kit comes in a convenient 96-well format, with enough purified recombinant TrkA enzyme, TrkA substrate, ATP and kinase assay buffer for 100 enzyme reactions. The method was discussed in details in the ESI.
# as §2, with “reactions.” for “reactions. The method was discussed in details in the ESI.”
# The assay protocol: all samples and controls should be tested in duplicate. Dissolve 5x Kinase Assay Buffer 1, ATP, and PTK Substrate Poly (Glu:Tyr 4:1) (10 mg/ml). 2). The master mixture (25 μl per well) was prepared by N wells x (6 μl 5x Kinase Assay Buffer 1 + 1 μl ATP (500 μM) + 1 μl PTK Substrate Poly (Glu:Tyr 4:1) (10mg/ml) + 17 μl water). Add 5 μl of Inhibitor solution of each well labeled as “Test Inhibitor”. For the “Positive Control" and “Blank”, add 5 μl of the same solution without inhibitor (Inhibitor buffer). Prepare 3 ml of 1x Kinase assay buffer 1 by mixing 600 μl of 5x Kinase assay buffer 1 with 2400 μl water 3 ml of 1x Kinase assay buffer is sufficient for 100 reactions. To the wells designated as "Blank", add 20 μl of 1x Kinase assay buffer 1and thaw TrkA enzyme on ice. Upon first thaw, briefly spin tube containing enzyme to recover full content of the tube. Calculate the amount of TrkA required for the assay and dilute enzyme to 5 ng/μl with 1x Kinase assay buffer. Store remaining undiluted enzyme in aliquots at -80°C. Then initiate reaction by adding 20 μl of diluted TrkA enzyme to the wells designated “Positive Control” and "Test Inhibitor Control". Incubate at 30°C for 45minutes and thaw Kinase-Glo Max reagent. After the 45 minute reaction, add 50 μl of Kinase-Glo Max reagent to each well. Cover plate with aluminum foil and incubate the plate at room temperature for 15 minutes. Immediately read sample in a luminometer or microtiter-plate capable of reading chemiluminescence. “Blank” value is subtracted from all readings.
# HepG2 cells = assay: Annexin V-FITC apoptosis assay; type: cell-based, human; conditions: for Apoptosis Early / Apoptosis Late / Necrosis: HepG2, 48 h, Annexin V-FITC/PI; for increase of early apoptosis ratio / increase of late apoptosis rate: HepG2, compared with untreated control cells
# Description: HepG-2 cells were harvested and incubated with compounds 7b, 15b, 16a and 16c separately for 48 h. Then, the cells were collected and washed with PBS two successive times followed by centrifugation. After that, the cells were treated with Annexin V-FITC and propidium iodide (PI) using the apoptosis detection kit (BD Biosciences and Annexin V-FITC and PI binding were analyzed by a flow cytometer.
# Early and late apoptosis was determined after treatment of HepG2 cells with compounds 7b, 15b, 16a and 16c compared with untreated control cells. The late apoptosis rate increased by about 13, 20, 4 and 3 times, respectively, showing a higher efficiency than the early apoptosis ratio 5, 2, 8 and 6 times, respectively.
# As mentioned above, HepG-2 cells were collected and incubated separately with compounds 7b, 15b, 16a and 16c for 48 hr. Cells were then collected and washed twice consecutively with PBS and centrifuged. After that, the cells were treated with Annexin V-FITC and propidium iodide (PI) using an apoptosis detection kit (BD Biosciences, San Jose, CA) according to the manufacturer's instructions. The biding of Annexin V-FITC and PI was analyzed by ﬂow cytometer.
SMILES,Cytotoxicity at 5 µg/l (MCF7 cell line),Cytotoxicity at 10 µg/l (MCF7 cell line),Cytotoxicity at 20 µg/l (MCF7 cell line),Cytotoxicity at 5 µg/l (HepG2 cell line),Cytotoxicity at 10 µg/l (HepG2 cell line),Cytotoxicity at 20 µg/l (HepG2 cell line),IC50 (HepG2 cell line) [ng/mL],Cytotoxicity at 5 µg/l (HCT-116 cell line),Cytotoxicity at 10 µg/l (HCT-116 cell line),Cytotoxicity at 20 µg/l (HCT-116 cell line),IC50 (HCT-116 cell line) [ng/mL],IC50 [1] [nM],Apoptosis Early (HepG2 cells) [%],Apoptosis Late (HepG2 cells) [%],Necrosis (HepG2 cells) [%],"apoptosis-inducing effect (HepG2 cells; HepG2, as stated in the abstract) [%]",increase of early apoptosis ratio (HepG2 cells) [times],increase of late apoptosis rate (HepG2 cells)
COc1ccc(C=C2C(=O)NC(=O)c3c2nn2c(C)cc(C)nc32)cc1 [Compound 7b],60.48,79.12,95.03,55.11,69.08,85.16,4.25,67.87,70.12,91.94,2.49,184,5.71,13.72,5.46,34.70,5,about 13 times
"Cc1cc(O)n2nc3c(c2n1)C(=O)NC(=O)C3=NNc1ccccc1 [Compound 16a, 4-Hydroxy-2-methyl-7-(2-phenylhydrazono)pyrido[4ʹ,3ʹ:3,4]pyrazolo[1,5-a]pyrimid-ine-8,10(7H,9H)-dione]",55.09,57.34,77.25,54.39,66.36,72.80,3.56,54.16,74.90,87.26,4.37,214,8.26,4.32,2.75,,8,~4 times
"COc1ccc(NN=C2C(=O)NC(=O)c3c2nn2c(O)cc(C)nc32)cc1 [Compound 16c, 4-Hydroxy-7-(2-(4-methoxyphenyl)hydrazono)-2-methylpyrido[4ʹ,3ʹ:3,4]pyrazolo[1,5-a]pyrimidine-8,10(7H,9H)-dione]",56.81,62.79,79.61,59.17,70.57,84.32,3.43,55.98,78.34,99.23,4.5,128,6.31,3.20,2.56,,6,~3 times
